Where two headings read alike, the source gives them in different places.
Assays:
[1] = test system: Blumeria graminis f. Sp. tritici (Erysiphe graminis f. Sp. tritici); assay: Blumeria graminis f. Sp. tritici (Erysiphe graminis f. Sp. tritici)/Wheat/Leaf Disc Preventative (Powdery Mildew on Wheat); type: in vivo; settings: foliar, read-out: inhibit fungal infestation
[2] = test system: Phaeosphaeria nodorum (Septoria nodorum); assay: Phaeosphaeria nodorum (Septoria nodorum)/Wheat/Leaf Disc Preventative (Glume Blotch); type: in vivo; settings: Parastagonospora nodorum, foliar, read-out: inhibit fungal infestation
Pythium ultimum = assay: Pythium ultimum/Liquid Culture (Seedling Damping Off); type: cell-based; settings: Globisporangium ultimum, read-out: inhibit fungal infestation
Phytophthora infestans = assay: whole plant or invertebrate; type: in vivo; settings: in Solanum lycopersicum, foliar, read-out: inhibit fungal infestation
Plasmopara viticola = assay: whole plant or invertebrate; type: in vivo; settings: foliar, read-out: inhibit fungal infestation
[3] = 200 ppm, wheat leaf segments cv. Kanzler, preventative, 6-8 days after application, untreated control infected to over 80%
[4] = 200 ppm, wheat leaf segments cv. Kanzler, preventative, 5-7 days after application, untreated control infected to over 80%
[5] = 200 ppm, liquid culture (PDB), 24° C., growth inhibition photometrically 2-3 days after application

Structure (SMILES) | inhibition at 200 ppm [1, 3] | inhibition at 200 ppm [2, 4] | inhibition at 200 ppm (Pythium ultimum; [5]) | melting point | inhibition at 200 ppm (Phytophthora infestans) | inhibition at 200 ppm (Plasmopara viticola) | inhibition at 200 ppm [1] | inhibition at 200 ppm (Pythium ultimum) | inhibition at 200 ppm [2]
CCOc1cnc2ccc(OC(SC)C(=O)NC(C)(C)C)cc2c1 (stereo not shown) [Compound 26, N-tert-Butyl-2-(3-ethoxy-quinolin-6-yloxy)-2-methylsulfanyl-acetamide] | ≥ 80% | ≥ 80% | ≥ 80% | 120 to 123 °C |  |  |  |  | 
COCC#CC(C)(C)NC(=O)C(Oc1ccc2ncc(OC)cc2c1)SC (stereo not shown) [Compound 4, N-(4-Methoxy-1,1-dimethyl-but-2-ynyl)-2-(3-methoxy-quinolin-6-yloxy)-2-methylsulfanyl-acetamide] |  |  |  | 95 to 98 °C | ≥ 80% | ≥ 80% | ≥ 80% | ≥ 80% | 
COCC(C)(C#N)NC(=O)C(Oc1cc(C)c2ncc(OC)cc2c1)SC (stereo not shown) [Compound 18, N-(1-Cyano-2-methoxy-1-methyl-ethyl)-2-(3-methoxy-8-methyl-quinolin-6-yloxy)-2-methylsulfanyl-acetamide] | ≥ 80% |  | ≥ 80% | 123 to 129 °C | ≥ 80% | ≥ 80% |  |  | 
CCC(Oc1ccc2ncc(SC)cc2c1)C(=O)NC(C)(C)C (stereo not shown) [Compound 30, N-tert-Butyl-2-(3-methylsulfanyl-quinolin-6-yloxy)-butyramide] | ≥ 80% |  | ≥ 80% | 113 to 115 °C | ≥ 80% | ≥ 80% |  |  | 
C#CC(C)(C=C)NC(=O)C(Oc1ccc2ncc(SC)cc2c1)SC (stereo not shown) [Compound 63, N-(1-Ethynyl-1-methyl-allyl)-2-methylsulfanyl-2-(3-methylsulfanyl-quinolin-6-yloxy)-acetamide] |  |  | ≥ 80% | 121 to 123 °C | ≥ 80% | ≥ 80% |  |  | 
C#CC(C)(COC)NC(=O)C(Oc1ccc2ncc(OC)cc2c1)SC (stereo not shown) [Compound 5, N-(1-Methoxymethyl-1-methyl-prop-2-ynyl)-2-(3-methoxy-quinolin-6-yloxy)-2-methylsulfanyl-acetamide] | ≥ 80% | ≥ 80% | ≥ 80% | 112 to 118 °C | ≥ 80% | ≥ 80% |  |  | 
C#CC(C)(C)NC(=O)C(Oc1ccc2ncc(OC)cc2c1)SC (stereo not shown) [Compound 10, N-(1,1-Dimethyl-prop-2-ynyl)-2-(3-methoxy-quinolin-6-yloxy)-2-methylsulfanyl-acetamide] | ≥ 80% | ≥ 80% | ≥ 80% | 152 to 154 °C | ≥ 80% | ≥ 80% |  |  | 
CCOc1cnc2c(C)cc(OC(SC)C(=O)NC(C)(C)/C=N/OC)cc2c1 (stereo not shown) [Compound 21, 2-(3-Ethoxy-8-methyl-quinolin-6-yloxy)-N-(2-methoxyimino-1,1-dimethyl-ethyl)-2-methylsulfanyl-acetamide] | ≥ 80% | ≥ 80% | ≥ 80% | 125 to 126 °C | ≥ 80% | ≥ 80% |  |  | 
C#CC(C)(C)NC(=O)C(Oc1cc(Cl)c2ncc(SC)cc2c1)SC (stereo not shown) [Compound 32, 2-(8-Chloro-3-methylsulfanyl-quinolin-6-yloxy)-N-(1,1-dimethyl-prop-2-ynyl)-2-methylsulfanyl-acetamide] |  |  | ≥ 80% | 157 to 159 °C | ≥ 80% | ≥ 80% |  |  | 
CSc1cnc2ccc(OC(SC)C(=O)NC(C)(C#N)C3CC3)cc2c1 (stereo not shown) [Compound 65, N-(Cyano-cyclopropyl-methyl-methyl)-2-methylsulfanyl-2-(3-methyl-sulfanyl-quinolin-6-yloxy)-acetamide] |  | ≥ 80% | ≥ 80% |  | ≥ 80% | ≥ 80% |  |  | 
COCC#CC(C)(C)NC(=O)C(Oc1cc(C)c2ncc(OC)cc2c1)SC (stereo not shown) [Compound 17, N-(4-Methoxy-1,1-dimethyl-but-2-ynyl)-2-(3-methoxy-8-methyl-quinolin-6-yloxy)-2-methylsulfanyl-acetamide] |  |  |  | 94 to 98 °C | ≥ 80% | ≥ 80% | ≥ 80% | ≥ 80% | ≥ 80%
COc1cnc2c(C)cc(OC(SC)C(=O)NC(C)(C)C)cc2c1 (stereo not shown) [Compound 16, N-tert-Butyl-2-(3-methoxy-8-methyl-quinolin-6-yloxy)-2-methylsulfanyl-acetamide] | ≥ 80% | ≥ 80% | ≥ 80% | 147 to 150 °C | ≥ 80% |  |  |  | 
CC#CC(C)(C)NC(=O)C(Oc1cc(Cl)c2ncc(SC)cc2c1)SC (stereo not shown) [Compound 33, 2-(8-Chloro-3-methylsulfanyl-quinolin-6-yloxy)-N-(1,1-dimethyl-but-2-ynyl)-2-methylsulfanyl-acetamide] |  |  |  | 153 to 155 °C | ≥ 80% | ≥ 80% |  | ≥ 80% | 
C#CC(C)(C)NC(=O)C(CC)Oc1cc(C)c2ncc(SC)cc2c1 (stereo not shown) [Compound 37, N-(1,1-Dimethyl-prop-2-ynyl)-2-(8-methyl-3-methylsulfanyl-quinolin-6-yloxy)-butyramide] |  | ≥ 80% | ≥ 80% | 134 to 136 °C |  | ≥ 80% |  |  | 
C#CC(C)(C)NC(=O)C(CC)Oc1ccc2ncc(SC)cc2c1 (stereo not shown) [Compound 29, N-(1,1-Dimethyl-prop-2-ynyl)-2-(3-methylsulfanyl-quinolin-6-yloxy)-butyramide] | ≥ 80% |  | ≥ 80% | 121 to 123 °C | ≥ 80% | ≥ 80% |  |  | 
CSc1cnc2ccc(OC(SC)C(=O)NC(C)(C)C#N)cc2c1 (stereo not shown) [Compound 68, N-(Cyano-dimethyl-methyl)-2-methylsulfanyl-2-(3-methylsulfanyl-quinolin-6-yloxy)-acetamide] |  |  | ≥ 80% |  | ≥ 80% | ≥ 80% |  |  | 
CO/N=C/C(C)(C)NC(=O)C(Oc1ccc2ncc(SC)cc2c1)SC (stereo not shown) [Compound 27, N-(2-Methoxy-imino-1,1-dimethyl-ethyl)-2-methylsulfanyl-2-(3-methylsulfanyl-quinolin-6-yloxy)-acetamide] | ≥ 80% | ≥ 80% | ≥ 80% | 120 to 122 °C | ≥ 80% | ≥ 80% |  |  | 
CC#CC(C)(C)NC(=O)C(Oc1ccc2ncc(OC)cc2c1)SC (stereo not shown) [Compound 11, N-(1,1-Dimethyl-but-2-ynyl)-2-(3-methoxy-quinolin-6-yloxy)-2-methylsulfanyl-acetamide] |  |  |  | 137 to 139 °C | ≥ 80% | ≥ 80% | ≥ 80% | ≥ 80% | ≥ 80%
CO/N=C/C(C)(C)NC(=O)C(Oc1cc(C)c2ncc(OC)cc2c1)SC (stereo not shown) [Compound 19, N-(2-Methoxyimino-1,1-dimethyl-ethyl)-2-(3-methoxy-8-methyl-quinolin-6-yloxy)-2-methylsulfanyl-acetamide] | ≥ 80% | ≥ 80% | ≥ 80% | 121 to 124 °C | ≥ 80% | ≥ 80% |  |  | 
CCSc1cnc2ccc(OC(SC)C(=O)NC(C)(C)/C=N/OC)cc2c1 (stereo not shown) [Compound 64, 2-(3-Ethylsulfanyl-quinolin-6-yloxy)-N-(2-methoxyimino-1,1-dimethyl-ethyl)-2-methylsulfanyl-acetamide] | ≥ 80% |  | ≥ 80% | 105 to 107 °C | ≥ 80% | ≥ 80% |  |  | 
CCOc1cnc2c(C)cc(OC(SC)C(=O)NC(C)(C)C#CCOC)cc2c1 (stereo not shown) [Compound 22] |  |  |  | 107 to 109 °C | ≥ 80% | ≥ 80% | ≥ 80% | ≥ 80% | ≥ 80%
CC#CC(C)(C)NC(=O)C(Oc1cc(Cl)c2ncc(OC)cc2c1)SC (stereo not shown) [Compound 14, 2-(8-Chloro-3-methoxy-quinolin-6-yloxy)-N-(1,1-dimethyl-but-2-ynyl)-2-methylsulfanyl-acetamide] |  |  |  | 133 to 136 °C | ≥ 80% | ≥ 80% | ≥ 80% | ≥ 80% | ≥ 80%
C#CC(C)(C)NC(=O)C(Oc1cc(C)c2ncc(OCC)cc2c1)SC (stereo not shown) [Compound 25, N-(1,1-Dimethyl-prop-2-ynyl)-2-(3-ethoxy-8-methyl-quinolin-6-yloxy)-2-methylsulfanyl-acetamide] | ≥ 80% | ≥ 80% | ≥ 80% | 160 to 162 °C |  | ≥ 80% |  |  | 
C#CC(C)(C#C)NC(=O)C(Oc1cc(C)c2ncc(OCC)cc2c1)SC (stereo not shown) [Compound 23, 2-(3-Ethoxy-8-methyl-quinolin-6-yloxy)-N-(1-ethynyl-1-methyl-prop-2-ynyl)-2-methylsulfanyl-acetamide] | ≥ 80% | ≥ 80% | ≥ 80% | 143 to 145 °C |  | ≥ 80% |  |  | 
